Laboratory results published in patent publication US12384780B2, “PARP1 inhibitors and uses thereof” (XinThera, Inc., priority 2022, dated 2025).

Columns and labels:
[1] = test system: MDA-MB-436 (mutated BRCA1) cells; assay: Cell growth inhibition assay (CellTiter-Glo), MDA-MB-436; type: cell-based; conditions: Homo sapiens, MDA-MB-436, 168 h, 500 cells/well, 7 days, CellTiter Glo 2.0; read-out: MDA-MB-436 pEC50 (converted)
Protocol: (§1) Cell proliferation was measured through the cell viability assay using DLD-1 BRCA2(−/−) and parental isogenic pair and MDA-MB-436 (mutated BRCA1) cell lines. The CellTiter-Glo (CTG) based cell viability assay is designed to determine the number of viable cells in the culture because of compound effect, by quantifying ATP, which indicates the presence of metabolically active cells.
(§2) DLD-1 BRCA2(−/−) and parental isogenic pair were cultured in RPMI 1640 supplemented with […] (FBS), and […] cells were cultured in DMEM supplemented with 10% FBS. Both were cultured at 37° C. with […]. Invention compounds were distributed to the 384 well plate (Corning, 3764) using Echo acoustic liquid handler to form a 1:3 serially diluted final concentration with top dose of 10 or 30 μM. The cells were seeded into the plate in the density of 50 cells/well (DLD-1 parental), 200 cells/well (DLD-1 BRCA2−/−), or 500 cells/well (MDA-MB-436). After a short spun, the cells were cultured in a well moisturized incubator at 37° C. with 5% CO2 for 7 days without disturbance. The cell viability was measured by CellTiter Glo 2.0 assay kit (Promega, G9243), and growth inhibition rate was calculated and plotted against final compound concentration, and the data were fitted in Xfit to generate IC50 values.

DLD-1 parental cells = assay: Cell growth inhibition assay (CellTiter-Glo), DLD-1 parental; type: cell-based; conditions: Homo sapiens, DLD-1, 168 h; 50 cells/well, 7 days, CellTiter Glo 2.0; read-out: DLD-1 parental pEC50 (converted)
Protocol: as §1, §2

DLD-1 BRCA2(−/−) cells = assay: Cell growth inhibition assay (CellTiter-Glo), DLD-1 BRCA2(−/−); type: cell-based; conditions: Homo sapiens, DLD-1, 168 h; 200 cells/well, 7 days, CellTiter Glo 2.0; read-out: DLD-1 BRCA2(−/−) pEC50 (converted)
Protocol: as §1, §2

PARP2 = molecular target: T1, PARP2 (Homo sapiens, UniProt Q9UGN5); assay: Biochemical fluorescent polarization (FP) assay, displacement of PARPi-FL, PARP2; type: binding; conditions: 20 nM protein, 3 nM PARPi-FL, 4 h at room temperature; read-out: FP PARP2 pIC50 (converted)
T1 construct: made in house
Protocol: (§3) Compounds were characterized using an assay measuring the displacement of a commercially available fluorescently labeled PARP 1/2 inhibitor (PARPi-FL, Tocris Biosciences, #6461) as exemplified in assays performed in WO2014/064149 and WO2021/013735A1. The assay was performed utilizing the following method: Compounds were dissolved in DMSO an Echo550 liquid handler was utilized to make serial dilations in the desired concentration range in Optiplate-384F plates. 100% DMSO was used for the high (with protein) and low (without protein) control samples. 20 nL of compound or DMSO alone was added to individual assay plate wells. PARP1 and PARP2 protein were expressed, purified, and diluted in assay buffer containing 50 mM Tris pH 8.0, 0.001% Triton X-100, 10 mM MgCl2, 150 mM NaCl to a final concentration of 20 nM. The PARPi-FL was then added at a final concentration of 3 nM. The assay plate was centrifuged at 1000 rpm for 1 min and incubated for 4 h at room temperature. […] [formula]

PARP1 = molecular target: T2, PARP1 (Homo sapiens, UniProt P09874); assay: Biochemical fluorescent polarization (FP) assay, displacement of PARPi-FL, PARP1; type: binding; conditions: 20 nM protein, 3 nM PARPi-FL, 4 h at room temperature; read-out: FP PARP1 pIC50 (converted)
T2 construct: made in house
Protocol: as §3

T1 sequence (Q9UGN5 whole entry): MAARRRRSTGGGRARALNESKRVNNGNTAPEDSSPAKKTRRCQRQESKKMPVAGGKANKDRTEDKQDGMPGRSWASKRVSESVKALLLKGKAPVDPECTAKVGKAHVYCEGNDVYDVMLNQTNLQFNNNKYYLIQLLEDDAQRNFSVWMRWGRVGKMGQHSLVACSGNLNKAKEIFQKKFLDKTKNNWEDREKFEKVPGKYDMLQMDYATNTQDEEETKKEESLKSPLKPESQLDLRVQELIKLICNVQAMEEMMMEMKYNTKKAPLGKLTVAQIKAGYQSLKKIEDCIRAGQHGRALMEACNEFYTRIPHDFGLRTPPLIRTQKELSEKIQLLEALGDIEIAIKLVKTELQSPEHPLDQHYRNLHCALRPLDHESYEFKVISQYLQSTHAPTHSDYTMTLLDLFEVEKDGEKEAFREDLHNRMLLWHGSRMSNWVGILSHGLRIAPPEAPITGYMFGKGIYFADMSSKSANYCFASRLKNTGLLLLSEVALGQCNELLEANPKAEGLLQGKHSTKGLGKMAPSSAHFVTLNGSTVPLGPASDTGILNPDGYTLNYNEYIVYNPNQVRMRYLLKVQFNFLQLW
T2 sequence (P09874 whole entry): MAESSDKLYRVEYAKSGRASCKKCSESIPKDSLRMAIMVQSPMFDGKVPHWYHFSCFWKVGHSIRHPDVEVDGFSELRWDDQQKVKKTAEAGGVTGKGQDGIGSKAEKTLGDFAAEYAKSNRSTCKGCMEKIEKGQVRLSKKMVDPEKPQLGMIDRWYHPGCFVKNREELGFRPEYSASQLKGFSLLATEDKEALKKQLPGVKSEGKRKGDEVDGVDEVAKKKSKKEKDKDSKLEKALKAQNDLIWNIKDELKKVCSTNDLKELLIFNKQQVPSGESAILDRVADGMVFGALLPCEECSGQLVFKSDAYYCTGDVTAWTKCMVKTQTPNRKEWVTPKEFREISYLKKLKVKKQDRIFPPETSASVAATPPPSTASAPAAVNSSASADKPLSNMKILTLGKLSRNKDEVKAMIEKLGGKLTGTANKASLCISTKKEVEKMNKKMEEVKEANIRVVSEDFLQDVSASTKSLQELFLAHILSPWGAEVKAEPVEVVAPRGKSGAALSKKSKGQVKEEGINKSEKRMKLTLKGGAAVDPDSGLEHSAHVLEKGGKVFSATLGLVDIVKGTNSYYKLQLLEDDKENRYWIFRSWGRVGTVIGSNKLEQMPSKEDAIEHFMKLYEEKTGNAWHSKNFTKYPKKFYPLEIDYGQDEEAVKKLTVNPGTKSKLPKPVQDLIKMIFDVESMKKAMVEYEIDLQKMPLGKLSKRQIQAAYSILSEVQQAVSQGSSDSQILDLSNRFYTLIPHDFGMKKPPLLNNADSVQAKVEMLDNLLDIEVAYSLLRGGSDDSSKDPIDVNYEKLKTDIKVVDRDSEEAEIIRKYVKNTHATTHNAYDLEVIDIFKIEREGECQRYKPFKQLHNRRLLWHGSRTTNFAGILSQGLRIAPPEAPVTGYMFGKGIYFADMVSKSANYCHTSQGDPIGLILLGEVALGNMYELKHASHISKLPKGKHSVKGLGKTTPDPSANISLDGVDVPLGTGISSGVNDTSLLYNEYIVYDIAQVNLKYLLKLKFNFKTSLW

SMILES | EC50 [1] [nM] | EC50 (DLD-1 parental cells) [nM] | EC50 (DLD-1 BRCA2(−/−) cells) [nM] | IC50 (PARP2) [nM] | IC50 (PARP1) [nM]
CCc1cc2ncc(CN3CCN(c4ccc(C#N)nc4)CC3)cc2[nH]c1=O [Example 3, 5-{4-[(7-ethyl-6-oxo-5H-1,5-naphthyridin-3-yl)methyl]piperazin-1-yl}pyridine-2-carbonitrile] | 2.51 | > 31600 | 3.16 |  | 
Cc1cc2ncc(CN3CCN(c4ccc(C#N)cn4)CC3)cc2[nH]c1=O [Example 6] | 2.51 | > 31600 | 2.51 | 5010 | 5.01
CCc1cc2ncc(CN3CCN(c4ccc(C#N)cc4C#N)CC3)cc2[nH]c1=O [Example 52] | 0.631 |  | 0.794 | 12600 | 25.1
Cc1cc2ncc(CN3CCN(c4ccc(C#N)nc4Cl)CC3)cc2[nH]c1=O [Example 55] | 1 |  | 1.26 | > 100000 | 7.94
N#Cc1ccc(N2CCN(Cc3cnc4cc(Cl)c(=O)[nH]c4c3)CC2)nc1 [Example 57] | 2 | 20000 | 2.51 | 50100 | 5.01
Cc1cc2ncc(CN3CCN(c4cc(F)c(F)cn4)CC3)cc2[nH]c1=O [Example 58] | 7.94 |  | 7.94 | 15800 | 12.6
N#Cc1ccc(N2CCN(Cc3cnc4cc(C(F)F)c(=O)[nH]c4c3)CC2)cc1 [Example 59] | 1 |  | 1.26 | > 100000 | 6.31
N#Cc1ccc(N2CCN(Cc3cnc4cc(Br)c(=O)[nH]c4c3)CC2)nc1 [Example 60, 6-{4-[(7-bromo-6-oxo-5H-1,5-naphthyridin-3-yl)methyl]piperazin-1-yl}pyridine-3-carbonitrile] | 1.26 |  | 1.58 | 2000 | 6.31
N#Cc1ccc(N2CCN(Cc3cnc4cc(Cl)c(=O)[nH]c4c3)CC2)c(F)n1 [Example 61] | 2 |  | 3.16 | > 100000 | 6.31
[2H]C([2H])(c1cnc2cc(C(F)F)c(=O)[nH]c2c1)N1CCN(c2ccc(C#N)cn2)CC1 [Example 63] | 1.26 |  | 1.58 | 794 | 15.8
CCc1cc2ncc(CN3CCC(c4ccc(C#N)cn4)CC3)cc2[nH]c1=O [Example 64] | 2 |  | 5.01 | > 100000 | 5.01
N#Cc1ccc(N2CCN(Cc3cnc4cc(Cl)c(=O)[nH]c4c3)CC2)cc1 [Example 66] | 1.58 |  | 2 | > 100000 | 5.01
[2H]C([2H])(c1cnc2cc(CC)c(=O)[nH]c2c1)N1CCN(c2ccc(F)cc2C#N)CC1 [Example 67] | 1.58 |  | 1.58 | 25100 | 15.8
N#Cc1ccc(N2CCN(Cc3cnc4cc(Cl)c(=O)[nH]c4c3)CC2)c(Cl)n1 [Example 77] | 0.794 |  | 0.794 | > 100000 | 6.31
Cc1cc2ncc(CN3CCN(c4ccc(C#N)nc4F)CC3)cc2[nH]c1=O [Example 78] | 3.16 |  | 3.98 | > 100000 | 6.31
Cc1cc2c(F)cc(CN3CCN(c4ccc(C#N)cn4)CC3)cc2[nH]c1=O [Example 79] | 5.01 |  | 7.94 | 12600 | 10
Cc1nc2ccc(CN3CCN(c4ccc(C#N)cn4)CC3)cc2[nH]c1=O [Example 84] | 7.94 |  | 6.31 | 50100 | 10
